Key:
HCVcc-Luc = assay: Time-of-addition experiment, HCVcc-Luc on Huh7.5.1 cells; assay type: cell-based, Hepatitis C virus; settings: 2 μM
Method: (§1) (A) PHHs seeded in a 48-well plate were treated with Roc-A or DMSO and then infected by HCVpp. EC50and CC50 (50% cytotoxicity dose) were calculated based on the fitted Sigmoid curves. (B) Huh7.5.1 cells were treated with Roc-A (20 nM) or DMSO for 1, 2, and 3 days. Cellular PHB1, PHB2, CRaf, and Ras were detected by Western blotting. Numbers shown below Western blot gel images indicate the relative protein levels quantified by Odyssey imaging system (LI-COR Biosciences). (C-D) Flag-CRaf (F-CRaf) and V5-tagged PHB1 & 2 were co-transfected into 293T cells and then left untreated or treated with Roc-A (20 nM) before immunoprecipitation with anti-Flag antibody. The pulled-down PHB1 & 2 as well as CRaf were detected by immunoblotting. (E) Different inhibitory profiles of the (+)- and(−)-Roc-A enantiomers on HCVcc infection. (F) A CMV-luciferase reporter construct was transfected into Huh7.5.1 cells. 24 h post-transfection each compound was added to the cells for 3 h at 2 μM. After removal of the compound, the cells were further incubated for 24 h followed by luciferase assay. […] HCVcc-Luc was added to Huh7.5.1 cells at 37° C. and incubated for 3 h. At the indicated time points, 2μM of each compound or DMSO was added into the media and incubated for 3 h prior to removal. Infected cells were incubated at 37° C. for an additional 48 h prior to luciferase assay (mean of n=3; error bars, s.d.).

[1] = system: protein translation (luciferase reporter gene); assay: Translation inhibition, CMV-luciferase reporter transfected into Huh7.5.1 cells; assay type: cell-based, human; settings: compound added for 3 h, luciferase reporter in Huh7.5.1 cells
Method: as §1

[2] = system: JFH-1 genotype 2a infectious virus (HCVcc); assay: HCV (HCVcc) infection / viral entry inhibition on Huh7.5.1 cells; assay type: cell-based, Hepatitis C virus; settings: for EC50: Hepatitis C virus; for inhibition on HCV entry (enantiomer comparison): HCVcc infection
Method: as §1
(§2) In a preferred embodiment, Y is C, R1, R3, and R4 from the structure 5 is —OCH3, and R2 and R5 is hydrogen, which is aglaroxin C. […] The term EC50 refers to the concentration of a drug or antibody which induces a response halfway between the baseline and maximum after a specified exposure time. It is commonly used as a measure of drug's potency. The 50% cytotoxic concentration (CC50) is defined as the quantity of a toxicant generating 50% of cell viability, compared to the control. The values of the percentages of cell viability were plotted against toxicant concentrations, and CC50 is determined. (TI) is a comparison of the amount of a therapeutic agent that causes the therapeutic effect to the amount that causes toxicity.

[3] = Cytotoxicity (CC50) on Huh7.5.1 cells; assay type: cell-based; settings: human; for CC50 at 3 h: compounds incubated with cells for a total of 3 h on Huh7.5.1 cells; for CC50 at 48 h: compounds incubated with cells for a total of 48 h on Huh7.5.1 cells
Source text: as §2

PHB-CRaf interaction = PHB-CRaf interaction (Homo sapiens (Human), UniProt P35232+Q99623); assay: Co-IP of Flag-CRaf and V5-tagged PHB1 & 2 in 293T cells; assay type: cell-based; settings: 20 nM
Method: as §1

[4] = human liver microsomal stability assay
DENV2 = DENV2 infection of Huh7.5.1 cells; assay type: cell-based, dengue virus
Method: Huh7.5.1 cells were treated by DMSO, Roc-A (5nM) or Roc-A (10nM) for 10 hours prior to infection by DENV2 (MOI 0.1 and 1). 36 hours post-infection, cells were fixed in methanol and immunostained for DENV prM/E (red).

[5] = target: PHB1, PHB2, CRaf, and Ras (Homo sapiens (Human), UniProt P35232+Q99623); assay: Western blot of total cellular protein levels in Huh7.5.1 cells; assay type: cell-based; settings: 20 nM, 1, 2, and 3 days
Method: as §1

HCVpp = HCVpp infection/entry, primary human hepatocytes (PHHs), with cell viability; assay type: cell-based, Hepatitis C virus
CHIKVpp = CHIKVpp infection of Huh7.5.1 cells; assay type: cell-based, chikungunya virus; settings: low nanomolar concentrations
Method: FIGS. 4A and 4B illustrate that PHBs are required for CHIKVpp entry. (A) Huh7.5.1 were transfected with indicated siRNA, followed by infection of CHIKVpp (mean±SD, *p<0.05). (B) Huh 7.5.1 cells were treated with DMSO or Roc-A (10 nM) and then infected by CHIKVpp for luciferase assay (mean±SD, *p<0.05).

[6] = system: HCV RNA replication or protein translation; assay: HCV RNA replication or protein translation; assay type: cell-based, Hepatitis C virus; settings: 20 nM
PHB1 and PHB2 = PHB1 and PHB2 (Homo sapiens (Human), UniProt P35232+Q99623); assay: Cell surface biotinylation assay; assay type: cell-based; settings: 20 nM, Huh7.5.1 cells
[7] = 3 h incubation on Huh7.5.1 cells
[8] = 48 h incubation on Huh7.5.1 cells

Sequence of PHB-CRaf interaction (P35232 whole entry): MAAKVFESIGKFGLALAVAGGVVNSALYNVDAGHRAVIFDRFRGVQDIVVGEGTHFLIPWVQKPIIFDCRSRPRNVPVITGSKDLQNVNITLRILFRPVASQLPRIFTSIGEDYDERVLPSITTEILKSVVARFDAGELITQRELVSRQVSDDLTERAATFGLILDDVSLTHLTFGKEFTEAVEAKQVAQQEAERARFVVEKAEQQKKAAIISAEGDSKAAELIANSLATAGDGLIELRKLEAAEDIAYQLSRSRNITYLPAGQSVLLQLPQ
Sequence of PHB-CRaf interaction (Q99623 whole entry): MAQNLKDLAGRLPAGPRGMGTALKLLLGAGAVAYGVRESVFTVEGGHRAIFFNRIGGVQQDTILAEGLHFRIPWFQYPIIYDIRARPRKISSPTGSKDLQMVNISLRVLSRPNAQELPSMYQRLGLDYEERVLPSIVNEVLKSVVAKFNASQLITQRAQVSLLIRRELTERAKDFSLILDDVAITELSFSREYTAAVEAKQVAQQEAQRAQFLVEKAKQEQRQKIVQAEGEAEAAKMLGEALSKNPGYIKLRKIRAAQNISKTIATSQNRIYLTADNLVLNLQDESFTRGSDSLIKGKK

Compound	Translation inhibition at 2 μM [1]	TI (CC50/EC50) [2, 7]	TI (CC50/EC50) [2, 8]	EC50 ([2]; Huh-7.5.1, 3 h) [nM]	EC50 ([2]; Huh-7.5.1, 48 h) [nM]	CC50 at 3 h [3] [nM]	CC50 at 48 h [3] [nM]	inhibition on HCV entry (enantiomer comparison) [2]	other results
COc1ccc([C@@]23Oc4cc(OC)cc(OC)c4[C@]2(O)c2nc4n(c(=O)c2[C@H]3c2ccccc2)CCC4)cc1 (racemic) [(±) aglaroxin C (C10), aglaroxin C]	No	100	500	100	0.04	10000	20		anti-HCV activity (HCVcc-Luc; added about 3 h after the infection was initiated): lost its activity; anti-HCV activity (HCVcc-Luc; added together with the virus): inhibited HCV infection when added together with the virus; anti-HCV activity (HCVcc-Luc; added together with the virus, listed as chiral, racemic aglaroxin C): maximal anti-HCV activity; Translation inhibition at 2 μM ([1]; listed as chiral, racemic aglaroxin C): did not inhibit; half-maximum effective concentrations (EC50) ([2]; JFH-1 genotype 2a infectious virus in cell culture): picomolar
COc1ccc([C@]23Oc4cc(OC)cc(OC)c4[C@@]2(O)[C@@H](O)[C@@H](C(=O)N(C)C)[C@@H]3c2ccccc2)cc1 [(+) Roc-A]	No			> 200000		300000			
COc1ccc([C@]23Oc4cc(OC)cc(OC)c4[C@@]2(O)c2nc4n(c(=O)c2[C@@H]3c2ccccc2)CCC4)cc1 [(+)-aglaroxin C]	No	5^1		20000		100000			
COc1ccc([C@@]23Oc4cc(OC)cc(OC)c4[C@]2(O)[C@H](O)[C@H](C(=O)N(C)C)[C@H]3c2ccccc2)cc1 [(−) Roc-A]	No	50	75	1000	4	50000	300	stronger inhibition on HCV entry than the (+) enantiomer	
COc1ccc([C@@]23Oc4cc(OC)cc(OC)c4[C@]2(O)c2nc4n(c(=O)c2[C@H]3c2ccccc2)CCC4)cc1 [(−)-aglaroxin C]	No	60^1		200		12000		active enantiomer	
COc1ccc([C@@]23Oc4cc(OC)cc(OC)c4[C@]2(O)[C@H](O)[C@H](C(=O)N(C)C)[C@H]3c2ccccc2)cc1 [Roc-A, rocaglamide A]									PHB-CRaf interaction in co-IP experiment (PHB-CRaf interaction): disrupted; half-life [4]: 37 min; DENV2 infection (DENV2; 5 nM or 10 nM for 10 hours prior to infection, MOI 0.1 and 1, Huh7.5.1 cells): reduced; dengue virus infection (DENV2; low nanomolar concentrations): significantly reduced; HCVcc infection ([2]; low nanomolar concentrations): significantly reduced; PHB1, 2, Ras, and CRaf at the total protein level [5]: decreased; HCVpp infection (HCVpp; low nanomolar concentrations): significantly reduced; HCVpp entry (HCVpp; pretreatment of PHHs at non-cytotoxic concentrations): suppressed; CHIKVpp infection (CHIKVpp): significantly reduced; inhibition of HCV RNA replication or protein translation [6]: did not inhibit; cell surface expression of PHB1 and 2 (PHB1 and PHB2): decreased

— patent US10085988B1, “Aglaroxin C and derivatives as HCV entry inhibitors” (SRI International, priority 2015, dated 2018)
